We go through 25 compounds from patent publication US10933056B2, “3-(1H-pyrazol-4-yl)pyridine allosteric modulators of the M4 muscarinic acetylcholine receptor” (Merck Sharp & Dohme Corp., priority 2015, dated 2021).

The assay has as its target T1, human M4 muscarinic acetylcholine receptor (Homo sapiens, UniProt P08173).
T1 construct: expressed in transfected cells; host or cells: CHO-K1
T1 sequence (P08173 1-479): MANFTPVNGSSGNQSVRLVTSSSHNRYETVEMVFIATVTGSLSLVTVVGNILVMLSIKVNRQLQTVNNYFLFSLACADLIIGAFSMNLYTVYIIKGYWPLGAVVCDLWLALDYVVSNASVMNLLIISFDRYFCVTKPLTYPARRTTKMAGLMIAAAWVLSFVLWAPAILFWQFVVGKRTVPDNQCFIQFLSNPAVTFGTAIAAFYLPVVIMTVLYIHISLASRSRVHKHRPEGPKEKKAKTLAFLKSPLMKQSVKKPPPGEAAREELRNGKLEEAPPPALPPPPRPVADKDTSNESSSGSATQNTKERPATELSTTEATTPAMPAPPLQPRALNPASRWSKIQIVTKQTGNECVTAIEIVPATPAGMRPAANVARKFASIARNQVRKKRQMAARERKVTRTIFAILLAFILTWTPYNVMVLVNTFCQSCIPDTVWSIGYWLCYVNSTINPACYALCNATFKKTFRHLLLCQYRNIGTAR
The assay can be described thus: human FLIPR-based M4 PAM assay (calcium mobilization in CHO-K1 cells with human M4 receptor and Gαqi5). The class given is cell-based. Particulars: inflection point of dose response curve, acetylcholine at 20% of maximum response, FLIPR Tetra, read-out: M4 PAM IP. On the procedure: (§1) In a typical experiment the M4 muscarinic acetylcholine receptor modulating activity of the compounds of the present invention was determined in accordance with the following experimental method. CHO-K1 cells stably transfected with human M4 receptor and chimeric G-protein Gαqi5 (Coward P, et al., Analytical Biochemistry, 270:242-248 (1999)) are thawed from liquid N2 storage, resuspended in growth medium, plated in black, clear bottom 384 well plates, and incubated 16-20 hours at 37° C., 5% CO2. On the day of assay, growth medium is removed, the cells are washed 2 times with wash buffer, and cells are incubated in dye loading buffer at 37° C., 5% CO2 for ˜1 hour. Following dye loading the cell plates are placed in a FLIPR Tetra instrument and while monitoring dye fluorescence (excitation […]), 10 uL of test substance at increasing concentrations is added, and fluorescence values are recorded for 4 min. Next, 10 uL of acetylcholine is added (final concentration calculated so as to achieve 20% of the maximum acetycholine response), and the fluorescence reading is continued for 3.5 min. In some cases, a third addition of acetylcholine (final concentration calculated to achieve 70% of the maximal acetylcholine response) is performed. The resulting dose response curves are fit to a 4 parameter logistic equation and the final result is determined as the inflection point (IP) of the curve
as §1, with “CHO-K1” for “In a typical experiment the M4 muscarinic acetylcholine receptor modulating activity of the compounds of the present invention was determined in accordance with the following experimental method. CHO-K1”, “Gαqi5” for “Gαqi5 (Coward P, et al., Analytical Biochemistry, 270:242-248 (1999))”, “performed.” for “performed. The resulting dose response curves are fit to a 4 parameter logistic equation and the final result is determined as the inflection point (IP) of the curve”
A general note: A change in cytosolic calcium serves as a functional read-out for many receptors and channels.

For the compound `CC1(Cn2ncc(-c3ccc(C#N)nc3-c3ccc4c(c3)C(=O)N(CC3CC3)C4)c2F)CCCC1` [Example 45, 6-(2-(cyclopropylmethyl)-3-oxoisoindolin-5-yl)-5-(5-fluoro-1-((1-methylcyclopentyl)methyl)-1H-pyrazol-4-yl)picolinonitri1e], the EC50 is 41 nM. Next, `CN1Cc2ccc(-c3nc4c(cc3-c3cnn(CC5(C)CCCC5)c3)CCC4)cc2C1=O` [Example 39, 2-methyl-6-(3-(1-((1-methylcyclopentyl)methyl)-1H-pyrazol-4-yl)-6,7-dihydro-5H-cyclopenta[b]pyridin-2-yl)isoindolin-1-one]: 37 nM; `C#Cc1ccc(-c2cnn(CC3(C)CCCC3)c2)c(-c2cnc3c(c2)C(=O)N(CC2CC2)C3)n1` [Example 128, 6-(Cyclopropylmethyl)-3-(6-ethynyl-3-(1-((1-methylcyclopentyl)methyl)-1H-pyrazol-4-yl)pyridin-2-yl)-6,7-dihydro-5H-pyrrolo[3,4-b]pyridin-5-one]: 62 nM; `Cc1ccc(-c2cnn(CC3CCCC3)c2)c(-c2ccc3c(c2)C(=O)N(CC2CCCO2)C3)n1` (stereo not shown) [Example 5, 6-(3-(1-(cyclopentylmethyl)-1H-pyrazol-4-yl)-6-methylpyridin-2-yl)-2-((tetrahydrofuran-2-yl)methyl)isoindolin-1-one]: 20 nM. For `CN1Cc2ccc(-c3ncccc3-c3cnn(CC4CCCC4)c3)cc2C1=O` [Example 96, 6-(3-(1-(cyclopentylmethyl)-1H-pyrazol-4-yl)pyridin-2-yl)-2-methylisoindolin-1-one] the value was 56 nM. For `O=C1c2cc(-c3ncccc3-c3cnn(CC4CCCC4)c3)ccc2CN1CC1CCCO1` (stereo not shown) [Example 85, 6-(3-(1-(cyclopentylmethyl)-1H-pyrazol-4-yl)pyridin-2-yl)-2-((tetrahydrofuran-2-yl)methyl)isoindolin-1-one] the value was 60 nM. `Cc1cc(-c2cnn(CC3(C)CCCC3)c2)c(-c2ccc3c(c2)C(=O)NC3)nc1Cl` [Example 40, 6-(6-chloro-5-methyl-3-(1-((1-methylcyclopentyl)methyl)-1H-pyrazol-4-yl)pyridin-2-yl)isoindolin-1-one]: the EC50 is 49 nM. For `Cc1ccc(-c2cnn(CC3(C)CCCC3)c2)c(-c2ccc3c(c2)C(=O)N(CC2CC2)C3)n1` [Example 65, 2-(cyclopropylmethyl)-6-(6-methyl-3-(1-((1-methylcyclopentyl)methyl)-1H-pyrazol-4-yl)pyridin-2-yl)isoindolin-1-one] the value was 136 nM; for `Cc1ccc(-c2cnn(CC3CCCC3)c2F)c(-c2ccc3c(c2)C(=O)N(C)C3)n1` [Example 76, 6-(3-(1-(cyclopentylmethyl)-5-fluoro-1H-pyrazol-4-yl)-6-methylpyridin-2-yl)-2-methylisoindolin-1-one], 9 nM.

For the compound `COC(=O)CN1Cc2ccc(-c3nc(C#N)ccc3-c3cnn(CC4(C)CCCC4)c3)cc2C1=O` [Example 34A, methyl 2-(6-(6-cyano-3-(1-((1-methylcyclopentyl)-methyl)-1H-pyrazol-4-yl)pyridin-2-yl)-1-oxoisoindolin-2-yl)acetate], the EC50 turned out to be 44 nM. Next, `CNC(=O)c1ccc(-c2cnn(CC3CCCC3)c2)c(-c2ccc3c(c2)C(=O)N(C2CC2)C3)n1` [Example 13, 5-(1-(cyclopentylmethyl)-1H-pyrazol-4-yl)-6-(2-cyclopropyl-3-oxoisoindolin-5-yl)-N-methylpicolinamide]: 613 nM; `C#CCN1Cc2ccc(-c3nc(C#N)ccc3-c3cnn(CC4(C)CCCC4)c3)cc2C1=O` [Example 120A]: 17 nM; `COCc1nc(-c2ccc3c(c2)C(=O)N(C)C3)c(-c2cnn(CC3(C)CCCC3)c2)cc1C` [Example 116, 6-(6-(Methoxymethyl)-5-methyl-3-(1-((1-methylcyclopentyl)methyl)-1H-pyrazol-4-yl)pyridin-2-yl)-2-methylisoindolin-1-one]: 326 nM. Take `CN1Cc2ccc(-c3nc(F)ccc3-c3cnn(CC4(C)CCCC4)c3F)cc2C1=O` [Example 57, 6-(6-fluoro-3-(5-fluoro-1-((1-methylcyclopentyl)methyl)-1H-pyrazol-4-yl)pyridin-2-yl)-2-methylisoindolin-1-one]: the EC50 is 44 nM.

With `CN1Cc2ncc(-c3nc4c(cc3-c3cnn(CC5(C)CCCC5)c3)CCC4)cc2C1=O` [Example 61, 6-methyl-3-(3-(1-((1-methylcyclopentyl)methyl)-1H-pyrazol-4-yl)-6,7-dihydro-5H-cyclopenta[b]pyridin-2-yl)-6,7-dihydro-5H-pyrrolo[3,4-b]pyridin-5-one], the EC50 came out at 59 nM. With `CN1Cc2ccc(-c3nc(C#N)c(F)cc3-c3cnn(CC4(C)CCCC4)c3)cc2C1=O` [Example 47, 3-fluoro-6-(2-methyl-3-oxoisoindolin-5-yl)-5-(1-((1-methylcyclopentyl)methyl)-1H-pyrazol-4-yl)picolinonitrile], the EC50 was 20 nM. For `N#CC1(N2Cc3ccc(-c4ncccc4-c4cnn(CC5CCCC5)c4)cc3C2=O)CC1` [Example 87, 1-(6-(3-(1-(cyclopentylmethyl)-1H-pyrazol-4-yl)pyridin-2-yl)-1-oxoisoindolin-2-yl)cyclopropane-1-carbonitrile] the value was 319 nM; for `N#Cc1ccc(-c2cnn(CC3CCCC3)c2)c(-c2ccc3c(c2)C(=O)N(C2CC2)C3)n1` [Example 19, 5-(1-(cyclopentylmethyl)-1H-pyrazol-4-yl)-6-(2-cyclopropyl-3-oxoisoindolin-5-yl)picolinonitrile], 9 nM; for `CN1Cc2ccc(-c3nc(C#N)c(N)cc3-c3cnn(CC4(C)CCCC4)c3)cc2C1=O` [Example 51, 3-amino-6-(2-methyl-3-oxoisoindolin-5-yl)-5-(1-((1-methylcyclopentyl)methyl)-1H-pyrazol-4-yl)picolinonitrile], 75 nM. Next, `Cc1ccc(-c2cnn(CC3(C)CCCC3)c2)c(-c2ccc3c(c2)C(=O)NC3=O)n1` [Example 99, 5-(6-methyl-3-(1-((1-methylcyclopentyl)methyl)-1H-pyrazol-4-yl)pyridin-2-yl)isoindoline-1,3-dione]: 19 nM; `CN1Cc2ncc(-c3nc(F)ccc3-c3cnn(CC4(C)CCCC4)c3F)cc2C1=O` [Example 59, 3-(6-fluoro-3-(5-fluoro-1-((1-methylcyclopentyl)methyl)-1H-pyrazol-4-yl)pyridin-2-yl)-6-methyl-6,7-dihydro-5H-pyrrolo[3,4-b]pyridin-5-one]: 14 nM; `Cc1ccc(-c2cnn(CC3CCCC3)c2)c(-c2ccc3c(c2)C(=O)N(C)C3)n1` [Example 97, 6-(3-(1-(cyclopentylmethyl)-1H-pyrazol-4-yl)-6-methylpyridin-2-yl)-2-methylisoindolin-1-one]: 16 nM.

For the compound `CC1(Cn2cc(-c3ccc(C#N)nc3-c3ccc4c(c3)C(=O)N(C3COC3)C4)cn2)CCCC1` [Example 82, 5-(1-((1-methylcyclopentyl)methyl)-1H-pyrazol-4-yl)-6-(2-(oxetan-3-yl)-3-oxoisoindolin-5-yl)picolinonitrile], the EC50 was 310 nM. Next, `Cc1cc(-c2cnn(CC3(C)CCCC3)c2)c(-c2ccc3c(c2)C(=O)N(C)C3)nc1C#N` [Example 111, 3-Methyl-6-(2-methyl-3-oxoisoindolin-5-yl)-5-(1-((1-methylcyclopentyl)methyl)-1H-pyrazol-4-yl)picolinonitrile]: 35 nM; `CC1(Cn2cc(-c3cccnc3-c3ccc4c(c3)C(=O)N(C3CC3)C4)cn2)CCCC1` [Example 26, 2-cyclopropyl-6-(3-(1-((1-methylcyclopentyl)methyl)-1H-pyrazol-4-yl)pyridin-2-yl)isoindolin-1-one]: 32 nM.
